Results from patent US5317086A, “Cysteine proteinase inhibitors and inhibitor precursors” (The Regents of the University of California, priority 1992, dated 1994).
Non-standard residues stand in square brackets, D forms with d. Residues, ends and D or L forms follow the SMILES beside them. ξ: configuration not given here. *: point of attachment. MeOSuc = COC(=O)CCC(=O)*; ξF = NC(Cc1ccccc1)C(=O)O

Target: T1, papain (Carica papaya, UniProt P00784)
T1 construct: purchased Sigma
T1 sequence (P00784 134-345): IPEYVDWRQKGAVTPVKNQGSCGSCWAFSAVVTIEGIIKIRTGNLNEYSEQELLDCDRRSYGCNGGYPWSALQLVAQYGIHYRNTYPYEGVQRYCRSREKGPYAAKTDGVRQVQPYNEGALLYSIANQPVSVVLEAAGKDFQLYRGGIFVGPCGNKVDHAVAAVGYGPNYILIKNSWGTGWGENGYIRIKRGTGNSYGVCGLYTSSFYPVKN
Test: Irreversible inhibition of papain (preincubation and 3000-fold dilution assay)
Type: biochemical
Details: control; 0.020 μM (666Ki) incubated with papain, diluted to (0.2 Ki); over 2.5 hr
Procedure: Papain (Sigma, 2x recrystallized) (1 mg/mL) was activated at 25° C. for 30 min prior to use in a solution of 0.1mM EDTA, 0.5 mM L-cysteine hydrochloride, and 0.06 mM mercaptoethanol, and was then diluted (20 μL to 1.0 mL) and stored at 4° C. for use in the assays. The cysteine and mercaptoethanol buffers were prepared fresh daily. The standard assay conditions consisted of 50 mM phosphate, 0.2 M NaCl, 5 mM EDTA, 2 mM dithiothreitol (DTT), 0.2% bovine serum albumin (BSA) and 20% CH3 CN, pH 6.5. However, these concentrations were obtained by dilution of a buffer of 100 mM phosphate, 0.4 M NaCl, 10 mM EDTA, 4 mM DTT at pH 6.5 to a final volume of 1 mL with the necessary amounts of CH3 CN and H2 O. The DTT and BSA were added fresh daily to the phosphate buffer. Kinetic measurements were performed by monitoring the fluorescence of 7-amino-4-methylcoumarin (MCA) [1 (excitation) 350 nm, 1 (emission) 460 nm] released upon hydrolysis of the substrate, CbzPheArgMCA. […] The Km was determined in duplicate runs by fitting rate vs. [S] using the program ENZFITTER. […]
The incomplete deactivation can be attributed to the increasing amounts of aldehyde present over time, which as a reversible inhibitor protects papain against alkylation. The dilution assay also provided evidence that the inhibition measured in the reversible assay was not due to trace amounts of aldehyde contamination. […]

## COC(=O)CCC(=O)NC(Cc1ccccc1)C(=O)NCC=O (stereo not shown) [MeOSucPheGlyCHO] (MeOSuc-[ξF]-Gly-aldehyde)
  loss of papain activity: 8%
